In ChEMBL document CHEMBL1131005, “Synthesis and dopamine transporter affinity of the four stereoisomers of (+/-)-2-(methoxycarbonyl)-7-methyl-3-phenyl-7-azabicyclo[2.2.1]heptane” (J Med Chem, 1998):

target: Sodium-dependent dopamine transporter (Rattus norvegicus, UniProt P23977); test: Binding affinity towards dopamine transporter using [3H]WIN-35428 as radioligand in rat caudate-putamen tissue; assay type: tissue-based
Sequence (P23977 whole entry): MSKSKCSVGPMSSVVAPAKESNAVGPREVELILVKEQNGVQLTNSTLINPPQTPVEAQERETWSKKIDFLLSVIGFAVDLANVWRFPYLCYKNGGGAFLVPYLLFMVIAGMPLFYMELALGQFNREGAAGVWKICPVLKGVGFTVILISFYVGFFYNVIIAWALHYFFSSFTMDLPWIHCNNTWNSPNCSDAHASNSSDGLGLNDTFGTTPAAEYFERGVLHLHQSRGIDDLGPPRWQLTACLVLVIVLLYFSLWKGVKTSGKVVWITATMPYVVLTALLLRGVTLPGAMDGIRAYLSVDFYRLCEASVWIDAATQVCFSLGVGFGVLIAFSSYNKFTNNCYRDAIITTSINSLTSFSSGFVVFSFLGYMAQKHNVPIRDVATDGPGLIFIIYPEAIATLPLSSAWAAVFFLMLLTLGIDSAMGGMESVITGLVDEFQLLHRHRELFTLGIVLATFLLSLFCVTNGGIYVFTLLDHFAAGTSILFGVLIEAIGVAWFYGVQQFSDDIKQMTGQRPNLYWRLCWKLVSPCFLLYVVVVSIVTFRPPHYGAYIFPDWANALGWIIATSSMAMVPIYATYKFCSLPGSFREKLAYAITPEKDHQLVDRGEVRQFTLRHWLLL

First: COC(=O)[C@@H]1C2CCC([C@H]1c1ccccc1)N2C (stereo partly drawn)
Second: COC(=O)[C@H]1C2CCC([C@H]1c1ccccc1)N2C (stereo partly drawn)
The Ki of the first is 3.4-fold lower: 5.62 µM for the first, 18.9 µM for the second.

Compound `COC(=O)[C@@H]1C2CCC([C@@H]1c1ccccc1)N2C` (stereo partly drawn) has a Ki of 60.4 µM.
